The text below walks through data of PMC10902378, “Effective engineering of a ketoreductase for the biocatalytic synthesis of an ipatasertib precursor” (Communications Chemistry, 2024).

The target in data set [1] is T1, Ssal-KRED (Sporobolomyces salmonicolor, UniProt Q9UUN9, F97W/S224A/A238K/L241M/M242W/Q245S/Y246G/L316M/T342M).
T1 construct: N-terminal 6xHis-tag, pET28b(+), purified; recombinant from E. coli
T1 sequence (Q9UUN9 2-343 F97W/S224A/A238K/L241M/M242W/Q245S/Y246G/L316M/T342M): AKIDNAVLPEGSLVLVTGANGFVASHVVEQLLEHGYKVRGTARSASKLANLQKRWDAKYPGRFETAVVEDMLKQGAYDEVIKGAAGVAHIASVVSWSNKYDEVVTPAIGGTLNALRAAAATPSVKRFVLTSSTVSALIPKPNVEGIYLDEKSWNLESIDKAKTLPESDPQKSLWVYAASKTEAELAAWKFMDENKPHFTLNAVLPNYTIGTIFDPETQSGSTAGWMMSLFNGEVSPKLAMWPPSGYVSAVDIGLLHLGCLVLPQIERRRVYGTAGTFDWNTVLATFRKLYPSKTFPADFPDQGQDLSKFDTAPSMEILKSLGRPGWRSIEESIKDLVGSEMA
Put plainly: UV assay at […] nm, Michaelis-Menten fit. It counts as biochemical. The conditions noted are these: apparent; NADP+/iPrOH as hydride donor; purified His-tagged enzyme; read-out: app. KM.

The target in data set [2] is T2, Ssal-KRED (Sporobolomyces salmonicolor, UniProt Q9UUN9, F97W/L241M/M242W/Q245S).
T2 construct: N-terminal 6xHis-tag, pET28b(+), purified; recombinant from E. coli
T2 sequence (Q9UUN9 2-343 F97W/L241M/M242W/Q245S): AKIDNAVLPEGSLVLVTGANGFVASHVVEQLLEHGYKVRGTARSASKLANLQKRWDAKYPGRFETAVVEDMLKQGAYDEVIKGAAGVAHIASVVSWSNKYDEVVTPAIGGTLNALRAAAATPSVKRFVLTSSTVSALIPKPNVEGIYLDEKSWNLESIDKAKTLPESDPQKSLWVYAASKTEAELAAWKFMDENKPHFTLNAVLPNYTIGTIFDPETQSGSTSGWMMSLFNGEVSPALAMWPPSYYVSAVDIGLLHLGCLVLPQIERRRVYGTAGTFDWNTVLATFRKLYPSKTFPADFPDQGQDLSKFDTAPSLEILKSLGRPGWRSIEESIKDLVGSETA
Put plainly: UV assay at […] nm, Michaelis-Menten fit. The conditions noted are these: apparent; NADP+/iPrOH as hydride donor; purified His-tagged enzyme; read-out: app. KM. It counts as biochemical.

In data set [3] the target is T3, Ssal-KRED (Sporobolomyces salmonicolor, UniProt Q9UUN9, F97W/L241M/M242W/Q245S/L316M/T342M).
T3 construct: N-terminal 6xHis-tag, pET28b(+), purified; recombinant from E. coli
T3 sequence (Q9UUN9 2-343 F97W/L241M/M242W/Q245S/L316M/T342M): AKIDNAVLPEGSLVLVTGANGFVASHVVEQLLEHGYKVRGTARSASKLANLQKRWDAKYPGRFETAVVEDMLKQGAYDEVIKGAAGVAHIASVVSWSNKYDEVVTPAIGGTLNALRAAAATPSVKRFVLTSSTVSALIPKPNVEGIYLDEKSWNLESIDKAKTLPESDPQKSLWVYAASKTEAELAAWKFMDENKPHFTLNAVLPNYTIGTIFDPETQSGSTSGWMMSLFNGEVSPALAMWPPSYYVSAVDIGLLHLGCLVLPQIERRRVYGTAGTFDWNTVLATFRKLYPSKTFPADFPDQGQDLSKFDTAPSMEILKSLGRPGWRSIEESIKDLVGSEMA
Put plainly: UV assay at […] nm, Michaelis-Menten fit. The class given is biochemical. The conditions noted are these: apparent; NADP+/iPrOH as hydride donor; purified His-tagged enzyme; read-out: app. KM.

Data set [4] concerns the target T4, Ssal-KRED (Sporobolomyces salmonicolor, UniProt Q9UUN9, F97W/T134V/S224A/A238K/L241M/M242W/Q245S/Y246G/L316M/T342M).
T4 construct: N-terminal 6xHis-tag, pET28b(+), purified; recombinant from E. coli
T4 sequence (Q9UUN9 2-343 F97W/T134V/S224A/A238K/L241M/M242W/Q245S/Y246G/L316M/T342M): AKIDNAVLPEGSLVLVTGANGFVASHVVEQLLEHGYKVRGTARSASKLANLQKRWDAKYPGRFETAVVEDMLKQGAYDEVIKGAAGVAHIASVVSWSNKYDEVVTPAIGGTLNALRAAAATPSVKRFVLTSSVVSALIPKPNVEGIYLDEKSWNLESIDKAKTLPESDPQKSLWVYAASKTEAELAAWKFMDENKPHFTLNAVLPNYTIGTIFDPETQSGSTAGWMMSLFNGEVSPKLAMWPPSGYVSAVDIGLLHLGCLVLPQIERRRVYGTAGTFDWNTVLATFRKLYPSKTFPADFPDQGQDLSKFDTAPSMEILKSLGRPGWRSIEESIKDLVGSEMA
Put plainly: UV assay at […] nm, Michaelis-Menten fit. The conditions noted are these: apparent; NADP+/iPrOH as hydride donor; purified His-tagged enzyme; read-out: app. KM. The class given is biochemical.

The target of data set [5] is T5, Ssal-KRED (Sporobolomyces salmonicolor, UniProt Q9UUN9).
T5 construct: N-terminal 6xHis-tag, pET28b(+), purified; recombinant from E. coli
T5 sequence (Q9UUN9 2-343): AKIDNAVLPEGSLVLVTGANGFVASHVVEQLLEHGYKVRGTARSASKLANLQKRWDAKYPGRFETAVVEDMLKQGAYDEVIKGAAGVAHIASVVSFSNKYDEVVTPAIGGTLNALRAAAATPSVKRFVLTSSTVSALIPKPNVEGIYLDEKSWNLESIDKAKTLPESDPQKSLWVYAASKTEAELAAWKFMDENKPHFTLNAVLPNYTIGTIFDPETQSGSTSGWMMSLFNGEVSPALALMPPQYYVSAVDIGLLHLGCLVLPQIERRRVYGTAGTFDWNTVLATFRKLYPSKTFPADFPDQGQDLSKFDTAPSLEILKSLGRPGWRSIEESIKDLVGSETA
The experiment in a line: UV assay at […] nm, Michaelis-Menten fit. The class given is biochemical. The note with it: apparent; NADP+/iPrOH as hydride donor; purified His-tagged enzyme; read-out: app. KM.

The target of data set [6] is T6, Ssal-KRED (Sporobolomyces salmonicolor, UniProt Q9UUN9, F97W/A238K/L241M/M242W/Q245S/L316M/T342M).
T6 construct: N-terminal 6xHis-tag, pET28b(+), purified; recombinant from E. coli
T6 sequence (Q9UUN9 2-343 F97W/A238K/L241M/M242W/Q245S/L316M/T342M): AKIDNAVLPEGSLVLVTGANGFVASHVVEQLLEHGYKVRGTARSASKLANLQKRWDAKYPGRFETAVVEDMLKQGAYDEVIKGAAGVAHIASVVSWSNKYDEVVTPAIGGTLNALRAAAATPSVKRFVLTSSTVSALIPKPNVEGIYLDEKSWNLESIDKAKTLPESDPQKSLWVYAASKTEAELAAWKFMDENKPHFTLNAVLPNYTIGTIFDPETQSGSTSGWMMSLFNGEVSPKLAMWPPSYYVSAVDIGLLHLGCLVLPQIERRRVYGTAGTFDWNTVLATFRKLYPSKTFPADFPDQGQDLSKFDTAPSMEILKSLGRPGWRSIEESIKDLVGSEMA
Put plainly: UV assay at […] nm, Michaelis-Menten fit. It counts as biochemical. The note with it: apparent; NADP+/iPrOH as hydride donor; purified His-tagged enzyme; read-out: app. KM.

Substrate in the data set “purified protein”: C[C@@H]1CC(=O)c2ncnc(N3CCN(C(=O)OC(C)(C)C)CC3)c21
The experiment in a line: purified protein. It counts as biochemical, Sporobolomyces salmonicolor. The conditions noted are these: apparent; NADP+/iPrOH as hydride donor; purified His-tagged enzyme; substrate saturation was not reached.

For `C[C@@H]1CC(=O)c2ncnc(N3CCN(C(=O)OC(C)(C)C)CC3)c21` [1a, ketone 1a], the Michaelis constant (Km) (commonly the concentration of substrate that gives half-maximal velocity) was 472 ± 34.6 µM on Ssal-KRED [1]; 163 ± 7.8 µM at Ssal-KRED [2]; 175 ± 9.9 µM at Ssal-KRED [3]; 144 ± 5.5 µM on Ssal-KRED [4]; 11.9 ± 1.1 µM at Ssal-KRED [5]; 300 ± 7.9 µM on Ssal-KRED [6].

B1: Ssal-KRED (Sporobolomyces salmonicolor; A238K/F97W/L241M/L316M/M242W/Q245S/T342M/Y246G) (protein)
chain: AKIDNAVLPEGSLVLVTGANGFVASHVVEQLLEHGYKVRGTARSASKLANLQKRWDAKYPGRFETAVVEDMLKQGAYDEVIKGAAGVAHIASVVSWSNKYDEVVTPAIGGTLNALRAAAATPSVKRFVLTSSTVSALIPKPNVEGIYLDEKSWNLESIDKAKTLPESDPQKSLWVYAASKTEAELAAWKFMDENKPHFTLNAVLPNYTIGTIFDPETQSGSTSGWMMSLFNGEVSPKLAMWPPSGYVSAVDIGLLHLGCLVLPQIERRRVYGTAGTFDWNTVLATFRKLYPSKTFPADFPDQGQDLSKFDTAPSMEILKSLGRPGWRSIEESIKDLVGSEMA
notes: N-terminal 6xHis-tag, pET28b(+), purified; recombinant from E. coli
As for B1, in “purified protein”, the Km came out at 1668 ± 103 µM; the kcat – broadly, the number of substrate molecules converted per active site and unit of time at saturation – stood at 0.763 ± 0.04 s⁻¹; the kcat/Km (usually the turnover number divided by the Michaelis constant) amounted to 458 M⁻¹ s⁻¹.
